pIC50, pKi: −log10 of the molar value.
Assays:
CTX-M9 = CTX-M9 (Escherichia coli, UniProt Q9L5C8); assay: Inhibition of other class A β-lactamase CTX-M9; format: biochemical
Procedure: (§1) For compound 9a binding affinity and mode of inhibition was determined by using gradient concentrations of CENTA. […] For this compound aggregating behavior was also excluded by dynamic light scattering experiment (data not shown).

recombinant KPC-2 = target: T1, recombinant KPC-2 (Klebsiella pneumoniae, UniProt Q9F663); assay: KPC-2 inhibition assay, CENTA as reporter substrate; format: biochemical
T1 construct: made in house; host or cells: E. coli BL21 (DE3)
T1 sequence (Q9F663 25-293, looked up): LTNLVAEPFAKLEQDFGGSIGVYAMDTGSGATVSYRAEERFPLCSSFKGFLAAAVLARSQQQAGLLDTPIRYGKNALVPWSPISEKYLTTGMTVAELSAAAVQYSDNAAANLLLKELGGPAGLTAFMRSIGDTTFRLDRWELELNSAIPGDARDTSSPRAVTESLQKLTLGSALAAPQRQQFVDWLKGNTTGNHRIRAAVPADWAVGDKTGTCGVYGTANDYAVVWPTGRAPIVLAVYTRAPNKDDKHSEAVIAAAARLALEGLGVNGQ
Procedure: The blaKPC-2 gene was kindly provided by Prof. Sergei Vakulenko (University of Notre Dame du Lac, Indiana, USA) and cloned as already reported and transformed into competent E.coli BL21 (DE3) cells for protein expression. 50 mL of Tryptic Soy Broth (TSB) (50 mg/L kanamycin) were inoculated with fresh colonies and grown at 37°C. 4 mL of the overnight culture was used to inoculate 1.3 L of TSB (50 mg/L kanamycin) grown at 37°C with shaking to an optical density of 0.5 measured at 600 nm. Then expression of recombinant bla gene was induced by adding 1.0 mM IPTG (isopropyl-D-thiogalactopyranoside) and the cells were again allowed to grow at 20°C overnight. Bacteria were harvested by centrifugation at 4000 rpm for 20 minutes. The pelleted cells were resuspended in Tris-HCl 50 mM pH 7.4–7.5. Periplasmatic proteins were extracted as reported in the pET System Manual (TB055 10th Edition Rev. B 0403) and subsequently dialyzed in sodium acetate buffer (50 mM, pH 5.0). The protein was conveniently purified in a single step using a Macro-Prep High S resin and eluted using sodium acetate 50 mM pH 5.0 and a sodium chloride (NaCl) linear gradient from 100 to 500 mM. The purified protein was dialyzed overnight in sodium phosphate buffer 50 mM, pH 7.0 [31, 32].
The hydrolytic activity of KPC-2 was measured using the β-lactam substrates CENTA (100 uM, KM 70 uM) or nitrocefin (114 uM, KM 36 μM) in reaction buffer consisting of 50 mM of PB at pH 7.0 at 25°C with 0.01% v/v Triton X-100 to avoid compound aggregation and promiscuous inhibition.[33] Reactions were monitored using a Beckmann DU640 spectrophotometer at […] for CENTA and 480 nm wavelength for nitrocefin [34]. The test compounds were synthesized as described below or purchased from Enamine, TimTec, Vitas-M, ChemBridge, Otava, Life Chemicals or Apollo Scientific and assayed without further purification. Compounds were dissolved in dimethyl sulfoxide (DMSO) to a concentration of 25 mM and stored at -20°C. The highest concentration at which the compounds were tested was up to 1 mM (depending on their solubility). All experiments were performed in duplicate and the error never exceeded 5%. The reaction was typically initiated by adding KPC-2 to the reaction buffer last. To control for incubation effects, protein was added to the reaction buffer first, and the reaction was initiated by the addition of reporter substrate after 10 minutes of enzyme-compound incubation.
Fig 4 Inhibitory activity of compounds selected from virtual screening. ^[a]Assays were performed in duplicate (errors were less than 5%) with CENTA as reporter substrate (100 μM, km 70 μM). Kinetic were monitored at 25° by following the absorbance variation at λ = 405 nm. ^[b] If no IC50 has been measured, percent inhibition at the highest tested concentration is given in parentheses. For example, > 0.50 (26%) implies that the highest concentration tested was 0.50 mM; at this concentration, the enzyme was inhibited by 26%. Therefore, IC50> 0.50 mM. When % Inhibition was below 10% No Inibition (NI) is reported. ^[c]Assays were run after 10’ incubation of the inhibitor with KPC-2. Reaction was started by the addition of CENTA. […] 0 (11) | 32a: IC50 mM ^[a,b]: 1.24
Competitive inhibition mechanism and the Ki for compound 9a was determined by Lineweaver–Burk (LB) and Dixon plots.

[1] = Dynamic light scattering, aggregating behavior; format: physicochemical; conditions: dynamic light scattering (data not shown)
Procedure: as §1

Kpn 53A8 = assay: MIC of meropenem, alone or 1:1 with compounds, KPC-2 clinical strain; format: cell-based, K. pneumoniae; conditions: Klebsiella pneumoniae; Kpn 53A8; no compound added
Procedure: (§2) The antimicrobial activity of the best hits 9a and 11a and their derivatives was studied in bacterial cell cultures to investigate their ability to cross the outer membrane reaching the periplasmic space, where KPC-2 is secreted and confined in Gram negative bacteria. Compounds were tested for synergy with the β-lactam antibiotic meropenem against four K. pneumoniae clinical strains, isolated from different patients at the Hospital Universitario Son Espases, Palma de Mallorca, Spain. […] The three additional strains harbored the blaKPC-2 gene and were resistant to meropenem (Table 2). […] However, against strain Kpn 53A8 the MIC value was lowered by a factor of two when meropenem was combined with compounds 32a, 1b, 2b, 5b and 6b while in combination with compound 11a the MIC value was reduced by 4 fold.

Kpn 99D8 = assay: as above; format: cell-based, K. pneumoniae; conditions: Klebsiella pneumoniae, no compound added
Procedure: as §2

Kpn 53A9 = assay: as above; format: cell-based, K. pneumoniae; conditions: Klebsiella pneumoniae, no compound added
Procedure: as §2

Kpn (C-) = assay: MIC of meropenem, alone or 1:1 with compounds, control strain; format: cell-based, K. pneumoniae; conditions: Klebsiella pneumoniae, no compound added
Procedure: as §2

CTX-M9, sequence (Q9L5C8 29-291): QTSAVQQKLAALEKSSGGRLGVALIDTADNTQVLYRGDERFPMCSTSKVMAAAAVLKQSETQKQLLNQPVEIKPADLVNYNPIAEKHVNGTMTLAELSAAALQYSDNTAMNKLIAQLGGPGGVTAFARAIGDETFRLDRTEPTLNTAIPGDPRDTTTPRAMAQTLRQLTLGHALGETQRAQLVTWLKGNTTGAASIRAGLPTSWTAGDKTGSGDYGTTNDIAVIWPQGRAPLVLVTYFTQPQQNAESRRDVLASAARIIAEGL

SMILES | pIC50 (CTX-M9) | pIC50 (recombinant KPC-2; CENTA 100 μM, after 10' incubation of the inhibitor with KPC-2, read-out: IC50) | pKi (recombinant KPC-2; Lineweaver–Burk and Dixon plots, gradient concentrations of CENTA, read-out: Ki (determined)) | ligand efficiency (LE) (recombinant KPC-2; vs KPC-2) | mode of inhibition (recombinant KPC-2; vs KPC-2) | aggregating behavior [1] | MIC (Kpn 53A8) [mg/L] | MIC (Kpn 99D8) [mg/L] | MIC (Kpn 53A9) [mg/L] | MIC (Kpn (C-)) [mg/L]
COc1ccc2nc(C(=O)O)sc2c1 [9a] | 3.80 | 3.82 | 3.95 | 0.38 kcal/mol/non-hydrogen atom | competitive inhibitor | excluded |  |  |  | 
C[C@@H](O)[C@H]1C(=O)N2C(C(=O)O)=C(S[C@@H]3CN[C@H](C(=O)N(C)C)C3)[C@H](C)[C@H]12 [meropenem] |  |  |  |  |  |  | 256 | 256 | 256 | < 0.25

From PMC6264499, “In silico identification and experimental validation of hits active against KPC-2 β-lactamase” (PLoS ONE, 2018)
